The target in this test is T1, BCL6 (Homo sapiens, UniProt P41182).
T1 construct: endogenous in cells; host or cells: T47D breast cancer epithelial cells
The test is described as follows: Immunofluorescence protocol for high content imaging of BCL6 (degradation) in T47D cells, 3 days compound treatment. The format is cell-based. The note with it: for Dmax: T47D, read-out: Mean Dmax (%)** category; for DC50: read-out: Mean DC50 (nM)* category. In a few lines: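 For degradation, compound series (3-fold, 11 points, top 0.1 or 1 μM final) were added to adherent T47D cultures for 3 days. BCL6 immunostaining used a rabbit antibody at 1:300 and an Alexa-488 secondary, with imaging at 10× magnification.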

A word on the Dmax: it is the greatest extent of degradation seen. For orientation: DC50 means the concentration giving 50% degradation. Consider `CNC(=O)COc1cc2cc(Nc3nc(N4CCC(CN5CCC6(CN(c7ccc8c(c7F)CN(C7CCC(=O)NC7=O)C8=O)C6)C(F)(F)C5)CC4)ncc3Cl)ccc2n(C(C)C)c1=O` (centres unmarked) [Compound 332, 2-{[6-({5-chloro-2-[4-({2-[2-(2,6-dioxopiperidin-3-yl)-4-fluoro-1-oxo-2,3-dihydro-1H-isoindol-5-yl]-5,5-difluoro-2,7-diazaspiro[3.5]nonan-7-yl}methyl)piperidin-1-yl]pyrimidin-4-yl}amino)-2-oxo-1-(propan-2-yl)-1,2-dihydroquinolin-3-yl]oxy}-N-methylacetamide], for which the Dmax was at least 70% and the DC50 was under 10 nM.
The corresponding values for `CNC(=O)COc1cc2cc(Nc3nc(N4CCC(CN5CCC6(CC5)CCN6c5cccc6c5C(=O)N(C5CCC(=O)NC5=O)C6=O)CC4)ncc3Cl)ccc2n(C(C)C)c1=O` (centres unmarked) [Compound 333, 2-{[6-({5-chloro-2-[4-({1-[2-(2,6-dioxopiperidin-3-yl)-1,3-dioxo-2,3-dihydro-1H-isoindol-4-yl]-1,7-diazaspiro[3.5]nonan-7-yl}methyl)piperidin-1-yl]pyrimidin-4-yl}amino)-2-oxo-1-(propan-2-yl)-1,2-dihydroquinolin-3-yl]oxy}-N-methylacetamide] are at least 70% and under 10 nM.
For `CNC(=O)COc1cc2cc(Nc3nc(N4CCC(CN5CCC6(CC5)CCN6c5cccc6c5CN(C5CCC(=O)NC5=O)C6=O)CC4)ncc3Cl)ccc2n(C(C)C)c1=O` (centres unmarked) [Compound 334, 2-{[6-({5-chloro-2-[4-({1-[2-(2,6-dioxopiperidin-3-yl)-1-oxo-2,3-dihydro-1H-isoindol-4-yl]-1,7-diazaspiro[3.5]nonan-7-yl}methyl)piperidin-1-yl]pyrimidin-4-yl}amino)-2-oxo-1-(propan-2-yl)-1,2-dihydroquinolin-3-yl]oxy}-N-methylacetamide], the Dmax was 50 to 70% and the DC50 was under 10 nM.
For `CNC(=O)COc1cc2cc(Nc3nc(N4CCC(CN5CCC6(CC5)CCN6c5ccc6c(c5)C(=O)N(C5CCC(=O)NC5=O)C6=O)CC4)ncc3Cl)ccc2n(C(C)C)c1=O` (centres unmarked) [Compound 335, 2-{[6-({5-chloro-2-[4-({1-[2-(2,6-dioxopiperidin-3-yl)-1,3-dioxo-2,3-dihydro-1H-isoindol-5-yl]-1,7-diazaspiro[3.5]nonan-7-yl}methyl)piperidin-1-yl]pyrimidin-4-yl}amino)-2-oxo-1-(propan-2-yl)-1,2-dihydroquinolin-3-yl]oxy}-N-methylacetamide], the Dmax is at least 70% and the DC50 is under 10 nM.
With `CNC(=O)COc1cc2cc(Nc3nc(N4CCC(CN5CCC6(CC5)CCN6c5ccc6c(c5)CN(C5CCC(=O)NC5=O)C6=O)CC4)ncc3Cl)ccc2n(C(C)C)c1=O` (centres unmarked) [Compound 336, 2-{[6-({5-chloro-2-[4-({1-[2-(2,6-dioxopiperidin-3-yl)-1-oxo-2,3-dihydro-1H-isoindol-5-yl]-1,7-diazaspiro[3.5]nonan-7-yl}methyl)piperidin-1-yl]pyrimidin-4-yl}amino)-2-oxo-1-(propan-2-yl)-1,2-dihydroquinolin-3-yl]oxy}-N-methylacetamide], the Dmax was at least 70% and the DC50 was under 10 nM.
Take `CNC(=O)COc1cc2cc(Nc3nc(N4CCC(CN5CCC6(CC5)CN(c5cccc7c5C(=O)N(C5CCC(=O)NC5=O)C7=O)C6(C)C)CC4)ncc3Cl)ccc2n(C(C)C)c1=O` (centres unmarked) [Compound 337, 2-{[6-({5-chloro-2-[4-({2-[2-(2,6-dioxopiperidin-3-yl)-1,3-dioxo-2,3-dihydro-1H-isoindol-4-yl]-1,1-dimethyl-2,7-diazaspiro[3.5]nonan-7-yl}methyl)piperidin-1-yl]pyrimidin-4-yl}amino)-2-oxo-1-(propan-2-yl)-1,2-dihydroquinolin-3-yl]oxy}-N-methylacetamide]: the Dmax was 50 to 70% and the DC50 was under 10 nM.
As to `CNC(=O)COc1cc2cc(Nc3nc(N4CCC(O[C@H]5C[C@H](N6CCC7(CN(c8ccc9c(c8)C(=O)N(C8CCC(=O)NC8=O)C9=O)C7)C6)C5)CC4)ncc3Cl)ccc2n(C(C)C)c1=O` (some centres unmarked) [Compound 338, 2-({6-[(5-chloro-2-{4-[(1r,3r)-3-{2-[2-(2,6-dioxopiperidin-3-yl)-1,3-dioxo-2,3-dihydro-1H-isoindol-5-yl]-2,6-diazaspiro[3.4]octan-6-yl}cyclobutoxy]piperidin-1-yl}pyrimidin-4-yl)amino]-2-oxo-1-(propan-2-yl)-1,2-dihydroquinolin-3-yl}oxy)-N-methylacetamide], the Dmax was at least 70% and the DC50 lay in the range of 10 to 50 nM.
Regarding `CNC(=O)COc1cc2cc(Nc3nc(N4CCC(O[C@H]5C[C@H](N6CCC7(CCN(c8ccc9c(c8)C(=O)N(C8CCC(=O)NC8=O)C9=O)C7)C6)C5)CC4)ncc3Cl)ccc2n(C(C)C)c1=O` (some centres unmarked) [Compound 339, 2-({6-[(5-chloro-2-{4-[(1r,3r)-3-{7-[2-(2,6-dioxopiperidin-3-yl)-1,3-dioxo-2,3-dihydro-1H-isoindol-5-yl]-2,7-diazaspiro[4.4]nonan-2-yl}cyclobutoxy]piperidin-1-yl}pyrimidin-4-yl)amino]-2-oxo-1-(propan-2-yl)-1,2-dihydroquinolin-3-yl}oxy)-N-methylacetamide], the Dmax lay within 50 to 70% and the DC50 is under 10 nM.
Take `CNC(=O)COc1cc2cc(Nc3nc(N4CCC(CN5CCC6(CC5)CN(c5ccc7c(c5OC)CN(C5CCC(=O)NC5=O)C7=O)C6(C)C)CC4)ncc3Cl)ccc2n(C(C)C)c1=O` (centres unmarked) [Compound 340, 2-{[6-({5-chloro-2-[4-({2-[2-(2,6-dioxopiperidin-3-yl)-4-methoxy-1-oxo-2,3-dihydro-1H-isoindol-5-yl]-1,1-dimethyl-2,7-diazaspiro [3.5]nonan-7-yl}methyl)piperidin-1-yl]pyrimidin-4-yl}amino)-2-oxo-1-(propan-2-yl)-1,2-dihydroquinolin-3-yl]oxy}-N-methylacetamide]: the DC50 fell in the range of 10 to 50 nM.
Regarding `CNC(=O)COc1cc2cc(Nc3nc(N4CCC(OC5CN([C@H]6CC[C@H](c7ccc8c(c7)C(=O)N(C7CCC(=O)NC7=O)C8=O)CC6)C5)CC4)ncc3Cl)ccc2n(C(C)C)c1=O` (some centres unmarked) [Compound 341, 2-{[6-({5-chloro-2-[4-({1-[(1r,4r)-4-[2-(2,6-dioxopiperidin-3-yl)-1,3-dioxo-2,3-dihydro-1H-isoindol-5-yl]cyclohexyl]azetidin-3-yl}oxy)piperidin-1-yl]pyrimidin-4-yl}amino)-2-oxo-1-(propan-2-yl)-1,2-dihydroquinolin-3-yl]oxy}-N-methylacetamide], the Dmax is 50 to 70% and the DC50 lay in the range of 10 to 50 nM.
For the compound `CNC(=O)COc1cc2cc(Nc3nc(N4CCN(C[C@H]5C[C@H](N6CCN(c7ccc8c(c7)CN(C7CCC(=O)NC7=O)C8=O)CC6)C5)CC4)ncc3Cl)ccc2n(C(C)C)c1=O` (some centres unmarked) [Compound 342, 2-[(6-{[5-chloro-2-(4-{[(1r,3r)-3-{4-[2-(2,6-dioxopiperidin-3-yl)-1-oxo-2,3-dihydro-1H-isoindol-5-yl]piperazin-1-yl}cyclobutyl]methyl}piperazin-1-yl)pyrimidin-4-yl]amino}-2-oxo-1-(propan-2-yl)-1,2-dihydroquinolin-3-yl)oxy]-N-methylacetamide], the Dmax was at least 70% and the DC50 is under 10 nM.
Taken in the same sequence, the figures for `CNC(=O)COc1cc2cc(Nc3nc(N4CCC(O[C@H]5C[C@H](N6CCC7(CCN(c8ccc9c(c8)C(=O)N(C8CCC(=O)NC8=O)C9=O)CC7)CC6)C5)CC4)ncc3Cl)ccc2n(C(C)C)c1=O` (some centres unmarked) [Compound 343, 2-({6-[(5-chloro-2-{4-[(1r,3r)-3-{9-[2-(2,6-dioxopiperidin-3-yl)-1,3-dioxo-2,3-dihydro-1H-isoindol-5-yl]-3,9-diazaspiro [5.5]undecan-3-yl}cyclobutoxy]piperidin-1-yl}pyrimidin-4-yl)amino]-2-oxo-1-(propan-2-yl)-1,2-dihydroquinolin-3-yl}oxy)-N-methylacetamide] were 50 to 70% and under 10 nM.
Taken in the same sequence, the figures for `CNC(=O)COc1cc2cc(Nc3nc(N4CCC(O[C@H]5C[C@H](N6CCC7(CN(c8ccc9c(c8)CN(C8CCC(=O)NC8=O)C9=O)C7)C6)C5)CC4)ncc3Cl)ccc2n(C(C)C)c1=O` (some centres unmarked) [Compound 344, 2-({6-[(5-chloro-2-{4-[(1r,3r)-3-{2-[2-(2,6-dioxopiperidin-3-yl)-1-oxo-2,3-dihydro-1H-isoindol-5-yl]-2,6-diazaspiro [3.4]octan-6-yl}cyclobutoxy]piperidin-1-yl}pyrimidin-4-yl)amino]-2-oxo-1-(propan-2-yl)-1,2-dihydroquinolin-3-yl}oxy)-N-methylacetamide] were under 50% and under 10 nM.
For the compound `CNC(=O)COc1cc2cc(Nc3nc(N4CCC(O[C@H]5C[C@H](N6CCC7(CN(c8ccc9c(c8)C(=O)N(C8CCC(=O)NC8=O)C9)C7)C6)C5)CC4)ncc3Cl)ccc2n(C(C)C)c1=O` (some centres unmarked) [Compound 345, 2-({6-[(5-chloro-2-{4-[(1r,3r)-3-{2-[2-(2,6-dioxopiperidin-3-yl)-3-oxo-2,3-dihydro-1H-isoindol-5-yl]-2,6-diazaspiro [3.4]octan-6-yl}cyclobutoxy]piperidin-1-yl}pyrimidin-4-yl)amino]-2-oxo-1-(propan-2-yl)-1,2-dihydroquinolin-3-yl}oxy)-N-methylacetamide], the Dmax is at least 70% and the DC50 was under 10 nM.
Regarding `CNC(=O)COc1cc2cc(Nc3nc(N4CCC(O[C@H]5C[C@H](N6CCC7(CCN(c8ccc9c(c8)CN(C8CCC(=O)NC8=O)C9=O)C7)C6)C5)CC4)ncc3Cl)ccc2n(C(C)C)c1=O` (some centres unmarked) [Compound 346, 2-({6-[(5-chloro-2-{4-[(1r,3r)-3-{7-[2-(2,6-dioxopiperidin-3-yl)-1-oxo-2,3-dihydro-1H-isoindol-5-yl]-2,7-diazaspiro [4.4]nonan-2-yl}cyclobutoxy]piperidin-1-yl}pyrimidin-4-yl)amino]-2-oxo-1-(propan-2-yl)-1,2-dihydroquinolin-3-yl}oxy)-N-methylacetamide], the Dmax is at least 70% and the DC50 was under 10 nM.

Source of the values: patent publication US11986532B2 (Arvinas Operations, Inc., priority 2021, dated 2024).
